The values below come from patent publication US20090012103A1, “SUBSTITUTED HETEROCYCLIC COMPOUNDS” (priority 2007, published 2009).

Where two headings read alike, the source gives them in different places.

In the test the target is wild-type human cardiac sodium channel, hNav1.5 (Homo sapiens, UniProt Q14524). Put plainly: Late INa screening assay (late sodium current, PatchXpress whole cell patch clamp). The format is cell-based. Particulars: read-out: Late INa % blk. As to the method: The late sodium current (Late INa) and peak sodium current (Peak INa) assays are performed on an automated electrophysiology platform, PatchXpress 7000A (MDS Analytical Technologies, Sunnyvale, Calif.), which uses the whole cell patch clamp technique to measure currents through the cell membrane of up to 16 cells at a time. The assay uses an HEK293 (human embryonic kidney) cell line heterologously expressing the wild-type human cardiac sodium channel, hNav1.5, purchased from Millipore (Billerica, Mass.). No beta subunits were coexpressed with the Na channel alpha subunit. […] Experiments are carried out at 24-27° C.
wild-type human cardiac sodium channel, hNav1.5, sequence (Q14524 whole entry): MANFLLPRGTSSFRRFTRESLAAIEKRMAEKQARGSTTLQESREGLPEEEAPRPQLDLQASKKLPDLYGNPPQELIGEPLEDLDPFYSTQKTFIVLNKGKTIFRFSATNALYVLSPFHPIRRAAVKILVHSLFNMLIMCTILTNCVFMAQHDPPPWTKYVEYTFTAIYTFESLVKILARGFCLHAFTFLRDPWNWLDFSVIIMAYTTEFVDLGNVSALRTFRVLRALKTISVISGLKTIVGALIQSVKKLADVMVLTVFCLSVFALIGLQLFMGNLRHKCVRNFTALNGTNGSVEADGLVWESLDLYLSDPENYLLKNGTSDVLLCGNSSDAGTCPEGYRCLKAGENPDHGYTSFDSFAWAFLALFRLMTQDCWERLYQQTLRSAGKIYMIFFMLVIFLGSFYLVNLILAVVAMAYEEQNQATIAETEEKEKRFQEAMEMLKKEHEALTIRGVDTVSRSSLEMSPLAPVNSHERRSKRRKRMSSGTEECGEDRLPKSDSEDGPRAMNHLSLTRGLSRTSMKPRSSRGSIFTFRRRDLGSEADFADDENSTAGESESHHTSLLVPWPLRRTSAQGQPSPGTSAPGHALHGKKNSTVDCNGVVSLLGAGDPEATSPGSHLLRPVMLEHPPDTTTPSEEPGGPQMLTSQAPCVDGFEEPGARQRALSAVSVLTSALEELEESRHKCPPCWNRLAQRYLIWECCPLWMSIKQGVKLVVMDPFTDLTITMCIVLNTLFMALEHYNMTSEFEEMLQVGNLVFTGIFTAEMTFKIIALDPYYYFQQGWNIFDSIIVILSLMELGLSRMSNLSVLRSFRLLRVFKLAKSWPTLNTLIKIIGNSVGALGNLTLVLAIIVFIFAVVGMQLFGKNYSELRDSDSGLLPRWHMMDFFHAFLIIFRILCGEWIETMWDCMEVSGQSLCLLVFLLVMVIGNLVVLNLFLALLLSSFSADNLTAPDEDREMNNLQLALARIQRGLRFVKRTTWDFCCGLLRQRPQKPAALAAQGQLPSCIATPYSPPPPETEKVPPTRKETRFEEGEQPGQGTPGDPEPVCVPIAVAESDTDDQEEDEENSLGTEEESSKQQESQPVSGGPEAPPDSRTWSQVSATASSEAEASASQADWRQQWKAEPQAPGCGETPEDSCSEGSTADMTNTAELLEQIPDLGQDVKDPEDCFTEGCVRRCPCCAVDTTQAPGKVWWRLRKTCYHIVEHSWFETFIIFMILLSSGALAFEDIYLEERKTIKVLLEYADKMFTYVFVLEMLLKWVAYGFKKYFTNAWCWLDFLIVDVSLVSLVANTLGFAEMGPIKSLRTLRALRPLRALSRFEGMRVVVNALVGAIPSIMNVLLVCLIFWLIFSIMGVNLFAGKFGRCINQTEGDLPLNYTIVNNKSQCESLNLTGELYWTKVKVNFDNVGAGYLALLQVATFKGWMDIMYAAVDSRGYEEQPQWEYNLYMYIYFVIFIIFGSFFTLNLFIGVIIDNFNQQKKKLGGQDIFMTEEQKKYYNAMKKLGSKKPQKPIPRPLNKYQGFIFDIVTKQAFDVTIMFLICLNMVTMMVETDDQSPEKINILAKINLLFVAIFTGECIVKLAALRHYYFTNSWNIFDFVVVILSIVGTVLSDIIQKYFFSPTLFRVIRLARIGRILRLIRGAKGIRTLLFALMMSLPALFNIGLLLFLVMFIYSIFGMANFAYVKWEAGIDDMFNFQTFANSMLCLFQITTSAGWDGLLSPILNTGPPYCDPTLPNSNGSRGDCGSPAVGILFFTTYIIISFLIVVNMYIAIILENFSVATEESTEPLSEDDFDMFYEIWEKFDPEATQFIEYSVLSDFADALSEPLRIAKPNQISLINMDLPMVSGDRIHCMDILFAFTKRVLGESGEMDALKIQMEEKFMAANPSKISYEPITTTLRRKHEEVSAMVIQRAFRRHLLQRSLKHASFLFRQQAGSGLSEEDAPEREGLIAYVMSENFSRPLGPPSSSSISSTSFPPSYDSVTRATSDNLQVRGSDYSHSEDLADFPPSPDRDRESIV
For both the Late INa and Peak INa assays, series resistance compensation is set to 50% and whole-cell compensation is performed automatically. […] Currents through open sodium channels are automatically recorded and stored in the DataXpress2 database (MDS Analytical Technologies, Sunnyvale, Calif.). Analysis is performed using DataXpress2 analysis software and data are compiled in Excel.
Compound stocks are routinely made in glass vials to 10 mM in dimethyl sulfoxide (DMSO). In some cases, when compounds are not soluble in DMSO, they are made in 100% ethanol. Stocks are sonicated as necessary. The extracellular solution for screening Late INa is composed of: 140 mM NaCl, 4 mM KCl, 1.8 mM CaCl2, 0.75 mM MgCl2, and 5 mM HEPES with pH adjusted to 7.4 using NaOH. The extracellular solution for screening Peak INa is composed of: 20 mM NaCl, 120 mM N-methyl-D glucamine, 4 mM KCl, 1.8 mM CaCl2, 0.75 mM MgCl2, and 5 mM HEPES with pH adjusted to 7.4 using HCl. The intracellular solution used to perfuse the inside of the cells for both the Late INa and Peak INa assays contains: 120 mM CsF, 20 mM CsCl, 5 mM EGTA, 5 mM HEPES and pH adjusted to 7.4 with CsOH. Compounds are diluted in extracellular solution to 10 μM in glass vials and then transferred to glass well plates before robotic addition to the cells. The 0 Na extracellular solution used at the end of each experiment for the Late INa and Peak INa assays to measure baseline current contains: 140 mM N-methyl-D-glucamine; 4 mM KCl; 1.8 mM CaCl2; 0.75 mM MgCl2; 5 mM HEPES and pH was adjusted to 7.4 with HCl.
For the Late INa assay, sodium channels are activated every 10 seconds (0.1 Hz) by depolarizing the cell membrane to −20 mV for 250 milliseconds (ms) from a holding potential of −120 mV.
All compounds are tested to determine their activity in blocking the late sodium current. Late INa current is generated by adding 10 μM Tefluthrin (pyrethroid) to the extracellular solution while recording Na currents. […] For some experiments, 50 nM ATX II (sea anemone toxin), another late INa activator, was used to generate the late component. […] Baseline current in the absence of Na^+ ions is measured at the end of each experiment (after two additions of 0 Na solution-see above) and is used to calculate the percent block by compound.

As to `CC1=C(C(=O)OC2CCCc3ccccc32)C(c2cccc3ccccc23)n2nnnc2N1` (centres unmarked) [PT-001, 1,2,3,4-tetrahydronaphthalen-1-yl 5-methyl-7-(naphthalen-1-yl)-4,7-dihydrotetrazolo[1,5-a]pyrimidine-6-carboxylate], the inhibition at 10 µM amounted to 28.8%.

Consider `CC1=C(C(=O)OCc2ccc(Oc3ccccc3)cc2)C(c2cccc3ccccc23)n2nnnc2N1` (centres unmarked) [PT-003, 4-phenoxybenzyl 5-methyl-7-(naphthalen-1-yl)-4,7-dihydrotetrazolo[1,5-a]pyrimidine-6-carboxylate], for which the inhibition at 10 µM (compound at 10 μM) is 14.5%.

As for `CC1=C(C(=O)OCc2ccc(-c3ccccc3)cc2)C(c2cccc3ccccc23)n2nnnc2N1` (centres unmarked) [PT-004, biphenyl-4-ylmethyl 5-methyl-7-(naphthalen-1-yl)-4,7-dihydrotetrazolo[1,5-a]pyrimidine-6-carboxylate], for the setting “compound at 10 μM”, the inhibition at 10 µM was 25.5%.

In the case of `CC1=C(C(=O)OCc2ccccc2-c2ccccc2)C(c2cccc3ccccc23)n2nnnc2N1` (centres unmarked) [PT-005, biphenyl-2-ylmethyl 5-methyl-7-(naphthalen-1-yl)-4,7-dihydrotetrazolo[1,5-a]pyrimidine-6-carboxylate], the inhibition at 10 µM (compound at 10 μM) amounted to 25.4%.

`CC1=C(C(=O)OCc2cccc(-c3ccccc3)c2)C(c2cccc3ccccc23)n2nnnc2N1` (centres unmarked) [PT-006, biphenyl-3-ylmethyl 5-methyl-7-(naphthalen-1-yl)-4,7-dihydrotetrazolo[1,5-a]pyrimidine-6-carboxylate]: the inhibition at 10 µM (compound at 10 μM) worked out at 5.4%.

Turning to `CC1=C(C(=O)OC(c2ccc(F)cc2)c2ccc(F)cc2)C(c2cccc3ccccc23)n2nnnc2N1` (centres unmarked) [PT-007, bis(4-fluorophenyl)methyl 5-methyl-7-(naphthalen-1-yl)-4,7-dihydrotetrazolo[1,5-a]pyrimidine-6-carboxylate], the inhibition at 10 µM (compound at 10 μM) amounted to 44%.

On to `CCOC(=O)C1=C(C(F)(F)F)Nc2nnnn2C1c1cccc2ccccc12` (centres unmarked) [PT-009, ethyl 7-(naphthalen-1-yl)-5-(trifluoromethyl)-4,7-dihydrotetrazolo[1,5-a]pyrimidine-6-carboxylate], for which the inhibition at 10 µM (compound at 10 μM) came to 8.2%.

For the compound `CCOC(=O)C1=C(CC)Nc2nnnn2C1c1ccc2ccccc2c1` (centres unmarked) [PT-011, ethyl 5-ethyl-7-(naphthalen-2-yl)-4,7-dihydrotetrazolo[1,5-a]pyrimidine-6-carboxylate], the inhibition at 10 µM (compound at 10 μM) amounted to 37.7%.

Regarding `CCOC(=O)C1=C(C(C)C)Nc2nnnn2C1c1ccc2ccccc2c1` (centres unmarked) [PT-012, ethyl 5-isopropyl-7-(naphthalen-2-yl)-4,7-dihydrotetrazolo[1,5-a]pyrimidine-6-carboxylate], under “compound at 10 μM”, the inhibition at 10 µM was 40.1%.

As to `CCOC(=O)C1=C(C(C)C)Nc2nnnn2C1c1cccc2ccccc12` (centres unmarked) [PT-013, ethyl 5-isopropyl-7-(naphthalen-1-yl)-4,7-dihydrotetrazolo[1,5-a]pyrimidine-6-carboxylate], the inhibition at 10 µM amounted to 45.4%.

As to `CCOC(=O)C1=C(C)N(C)c2nnnn2C1c1cccc2ccccc12` (centres unmarked) [PT-015, ethyl 4,5-dimethyl-7-(naphthalen-1-yl)-4,7-dihydrotetrazolo[1,5-a]pyrimidine-6-carboxylate], the inhibition at 10 µM (compound at 10 μM) amounted to 27.2%.

For the compound `CCOC(=O)C1=C(C(F)(F)F)Nc2nnnn2C1c1cccs1` (centres unmarked) [PT-016, ethyl 7-(thiophen-2-yl)-5-(trifluoromethyl)-4,7-dihydrotetrazolo[1,5-a]pyrimidine-6-carboxylate], the inhibition at 10 µM (compound at 10 μM) was found to be 30.7%.

Take `CC1=C(C(=O)OC(C)C)C(c2ccc3ccccc3c2)n2nnnc2N1` (centres unmarked) [PT-020, isopropyl 5-methyl-7-(naphthalen-2-yl)-4,7-dihydrotetrazolo[1,5-a]pyrimidine-6-carboxylate]: under “compound at 10 μM”, the inhibition at 10 µM was determined as 47.7%.

Consider `CC1=C(C(=O)OC(C)(C)C)C(c2ccc3ccccc3c2)n2nnnc2N1` (centres unmarked) [PT-022, tert-butyl 5-methyl-7-(naphthalen-2-yl)-4,7-dihydrotetrazolo[1,5-a]pyrimidine-6-carboxylate], for which the inhibition at 10 µM (compound at 10 μM) came out at 26%.
